The values below come from ChEMBL document CHEMBL4330132, “5-Keto-3-cyano-2,4-diaminothiophenes as selective maternal embryonic leucine zipper kinase inhibitors” (Bioorg Med Chem Lett, 2019).

In assay [1] the target is Ribosomal protein S6 kinase alpha-5 (Homo sapiens) (UniProt O75582). As to the kind of experiment: Binding affinity to wild-type human partial length C-terminal RPS6KA5 kinase domain 2 (V390 to T718 residues) expressed in bacterial expression system assessed as residual binding level at 1 uM by Kinomescan method relative to control.
The target of assay [2] is Serine/threonine-protein kinase MAK (Homo sapiens) (UniProt P20794). The assay can be described thus: Binding affinity to wild-type human partial length MAK (M1 to P314 residues) expressed in bacterial expression system assessed as residual binding level at 1 uM by Kinomescan method relative to control.
In assay [3] the test system is Tyrosine-protein kinase ABL1 (Homo sapiens), P00519 [F317I]. As to the kind of experiment: Binding affinity to human non-phosphorylated ABL1 F317I mutant (S229 to K512 residues) expressed in mammalian expression system assessed as residual binding level at 1 uM by Kinomescan method relative to control.
Assay [4] concerns the target Serine/threonine-protein kinase SIK2 (Homo sapiens) (UniProt Q9H0K1). The assay can be described thus: Binding affinity to wild-type human full length SIK2 (M1 to N926 residues) expressed in bacterial expression system assessed as residual binding level at 1 uM by Kinomescan method relative to control.
For assay [5], the target named is Glycogen synthase kinase-3 alpha (Homo sapiens) (UniProt P49840). The assay can be described thus: Binding affinity to wild-type human full length GSK3A (M1 to S483 residues) expressed in bacterial expression system assessed as residual binding level at 1 uM by Kinomescan method relative to control.
In assay [6] the target is Calcium/calmodulin-dependent protein kinase type 1 (Homo sapiens) (UniProt Q14012). The assay can be described thus: Binding affinity to wild-type human full length CAMK1 (M1 to L370 residues) expressed in bacterial expression system assessed as residual binding level at 1 uM by Kinomescan method relative to control.
In assay [7] the target is Atypical kinase COQ8B, mitochondrial (Homo sapiens) (UniProt Q96D53). As to the kind of experiment: Binding affinity to wild-type human full length ADCK4 (M1 to S544 residues) expressed in bacterial expression system assessed as residual binding level at 1 uM by Kinomescan method relative to control.
For assay [8], the target named is Phosphatidylinositol 3-kinase C2 domain-containing subunit gamma (Homo sapiens) (UniProt O75747). The assay can be described thus: Binding affinity to wild-type human partial length PIK3C2G (M1 to I1446 residues) expressed in mammalian expression system assessed as residual binding level at 1 uM by Kinomescan method relative to control.
The target in assay [9] is Non-receptor tyrosine-protein kinase TNK1 (Homo sapiens) (UniProt Q13470). The assay can be described thus: Binding affinity to wild-type human full length TNK1 (M1 to P661 residues) expressed in bacterial expression system assessed as residual binding level at 1 uM by Kinomescan method relative to control.
For assay [10], the target named is Mitogen-activated protein kinase kinase kinase kinase 2 (Homo sapiens) (UniProt Q12851). As to the kind of experiment: Binding affinity to wild-type human partial length MAP4K2 (M1 to G318 residues) expressed in mammalian expression system assessed as residual binding level at 1 uM by Kinomescan method relative to control.
Assay [11] deals with Interleukin-1 receptor-associated kinase 4 (Homo sapiens) (UniProt Q9NWZ3). As to the kind of experiment: Binding affinity to wild-type human partial length IRAK4 (M1 to S460 residues) expressed in mammalian expression system assessed as residual binding level at 1 uM by Kinomescan method relative to control.
The target in assay [12] is Serine/threonine-protein kinase PAK 1 (Homo sapiens) (UniProt Q13153). The assay can be described thus: Binding affinity to wild-type human partial length PAK1 (S149 to H545 residues) expressed in bacterial expression system assessed as residual binding level at 1 uM by Kinomescan method relative to control.
Assay [13] deals with Fibroblast growth factor receptor 2 (Homo sapiens) (UniProt P21802). The assay can be described thus: Binding affinity to wild-type human partial length FGFR2 (D457 to E769 residues) expressed in bacterial expression system assessed as residual binding level at 1 uM by Kinomescan method relative to control.
Assay [14] concerns the target Calcium-dependent protein kinase 1 (Plasmodium falciparum) (UniProt P62344). The assay can be described thus: Binding affinity to wild-type Plasmodium falciparum full length CDPK1 (M1 to S524 residues) expressed in mammalian expression system assessed as residual binding level at 1 uM by Kinomescan method relative to control.
Assay [15] addresses Serine/threonine-protein kinase tousled-like 2 (Homo sapiens) (UniProt Q86UE8). As to the kind of experiment: Binding affinity to wild-type human partial length TLK2 (E424 to N749 residues) expressed in bacterial expression system assessed as residual binding level at 1 uM by Kinomescan method relative to control.
In assay [16] the test system is Phosphatidylinositol 4,5-bisphosphate 3-kinase catalytic subunit alpha isoform (Homo sapiens), P42336 [E545K]. The assay can be described thus: Binding affinity to human partial length PIK3CA E545K mutant (R108 to N1068 residues) expressed in mammalian expression system assessed as residual binding level at 1 uM by Kinomescan method relative to control.
Assay [17] has as its target Tyrosine-protein kinase ITK/TSK (Homo sapiens) (UniProt Q08881). As to the kind of experiment: Binding affinity to wild-type human partial length ITK (R335 to L620 residues) expressed in bacterial expression system assessed as residual binding level at 1 uM by Kinomescan method relative to control.
For assay [18], the system named is Proto-oncogene tyrosine-protein kinase receptor Ret (Homo sapiens), P07949 [V804L]. The assay can be described thus: Binding affinity to human partial length RET V804L mutant (E713 to D1014 residues) expressed in bacterial expression system assessed as residual binding level at 1 uM by Kinomescan method relative to control.
The target in assay [19] is Phosphorylase b kinase gamma catalytic chain, skeletal muscle/heart isoform (Homo sapiens) (UniProt Q16816). The assay can be described thus: Binding affinity to wild-type human full length PHKG1 (M1 to Y387 residues) expressed in bacterial expression system assessed as residual binding level at 1 uM by Kinomescan method relative to control.
The target in assay [20] is BMP-2-inducible protein kinase (Homo sapiens) (UniProt Q9NSY1). As to the kind of experiment: Binding affinity to wild-type human partial length BIKE (S34 to N329 residues) expressed in bacterial expression system assessed as residual binding level at 1 uM by Kinomescan method relative to control.
The subject of assay [21] is Mast/stem cell growth factor receptor Kit (Homo sapiens), P10721 [V559D]. As to the kind of experiment: Binding affinity to human partial length KIT V559D mutant (Y545 to D952 residues) expressed in bacterial expression system assessed as residual binding level at 1 uM by Kinomescan method relative to control.
Assay [22] concerns the target Rho-associated protein kinase 2 (Homo sapiens) (UniProt O75116). As to the kind of experiment: Binding affinity to wild-type human partial length ROCK2 (M1 to T431 residues) expressed in mammalian expression system assessed as residual binding level at 1 uM by Kinomescan method relative to control.
The target in assay [23] is Casein kinase II subunit alpha (Homo sapiens) (UniProt P68400). As to the kind of experiment: Binding affinity to wild-type human full length CSNK2A1 (M1 to Q391 residues) expressed in mammalian expression system assessed as residual binding level at 1 uM by Kinomescan method relative to control.
The target in assay [24] is Bone morphogenetic protein receptor type-2 (Homo sapiens) (UniProt Q13873). As to the kind of experiment: Binding affinity to wild-type human partial length BMPR2 (R179 to Q526 residues) expressed in mammalian expression system assessed as residual binding level at 1 uM by Kinomescan method relative to control.

Chain of Atypical kinase COQ8B, mitochondrial (Homo sapiens) (Q96D53 whole entry, the tested form may be a part): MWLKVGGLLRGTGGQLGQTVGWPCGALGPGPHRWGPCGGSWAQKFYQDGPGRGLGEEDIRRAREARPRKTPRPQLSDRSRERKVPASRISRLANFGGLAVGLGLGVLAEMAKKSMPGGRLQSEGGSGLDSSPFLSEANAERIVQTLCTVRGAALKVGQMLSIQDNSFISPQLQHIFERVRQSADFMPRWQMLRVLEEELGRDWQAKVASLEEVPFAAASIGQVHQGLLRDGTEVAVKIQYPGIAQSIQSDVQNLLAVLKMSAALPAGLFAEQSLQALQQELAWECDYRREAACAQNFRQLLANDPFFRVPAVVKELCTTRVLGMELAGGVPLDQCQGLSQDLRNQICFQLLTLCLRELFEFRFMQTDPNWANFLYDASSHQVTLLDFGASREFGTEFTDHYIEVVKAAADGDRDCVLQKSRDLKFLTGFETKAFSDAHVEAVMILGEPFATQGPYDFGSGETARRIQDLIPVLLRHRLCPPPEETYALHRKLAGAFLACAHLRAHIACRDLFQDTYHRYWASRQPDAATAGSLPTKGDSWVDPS
Chain of Serine/threonine-protein kinase MAK (Homo sapiens) (P20794 whole entry, the tested form may be a part): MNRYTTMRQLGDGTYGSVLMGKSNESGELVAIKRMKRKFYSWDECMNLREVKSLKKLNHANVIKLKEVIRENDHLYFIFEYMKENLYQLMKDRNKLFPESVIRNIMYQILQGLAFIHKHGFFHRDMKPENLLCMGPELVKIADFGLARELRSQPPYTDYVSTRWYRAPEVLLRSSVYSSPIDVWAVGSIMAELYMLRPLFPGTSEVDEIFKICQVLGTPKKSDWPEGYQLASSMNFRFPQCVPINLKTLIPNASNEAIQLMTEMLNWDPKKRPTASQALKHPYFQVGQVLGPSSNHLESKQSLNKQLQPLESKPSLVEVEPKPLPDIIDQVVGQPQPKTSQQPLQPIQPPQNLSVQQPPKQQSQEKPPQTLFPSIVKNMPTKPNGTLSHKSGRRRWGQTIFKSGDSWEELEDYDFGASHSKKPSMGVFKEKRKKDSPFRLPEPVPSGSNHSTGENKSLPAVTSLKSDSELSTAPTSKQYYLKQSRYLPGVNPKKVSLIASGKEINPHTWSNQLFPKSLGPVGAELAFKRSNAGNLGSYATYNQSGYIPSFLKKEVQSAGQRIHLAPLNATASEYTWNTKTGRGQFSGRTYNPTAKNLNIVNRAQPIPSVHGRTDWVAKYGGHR
Chain of Non-receptor tyrosine-protein kinase TNK1 (Homo sapiens) (Q13470 whole entry, the tested form may be a part): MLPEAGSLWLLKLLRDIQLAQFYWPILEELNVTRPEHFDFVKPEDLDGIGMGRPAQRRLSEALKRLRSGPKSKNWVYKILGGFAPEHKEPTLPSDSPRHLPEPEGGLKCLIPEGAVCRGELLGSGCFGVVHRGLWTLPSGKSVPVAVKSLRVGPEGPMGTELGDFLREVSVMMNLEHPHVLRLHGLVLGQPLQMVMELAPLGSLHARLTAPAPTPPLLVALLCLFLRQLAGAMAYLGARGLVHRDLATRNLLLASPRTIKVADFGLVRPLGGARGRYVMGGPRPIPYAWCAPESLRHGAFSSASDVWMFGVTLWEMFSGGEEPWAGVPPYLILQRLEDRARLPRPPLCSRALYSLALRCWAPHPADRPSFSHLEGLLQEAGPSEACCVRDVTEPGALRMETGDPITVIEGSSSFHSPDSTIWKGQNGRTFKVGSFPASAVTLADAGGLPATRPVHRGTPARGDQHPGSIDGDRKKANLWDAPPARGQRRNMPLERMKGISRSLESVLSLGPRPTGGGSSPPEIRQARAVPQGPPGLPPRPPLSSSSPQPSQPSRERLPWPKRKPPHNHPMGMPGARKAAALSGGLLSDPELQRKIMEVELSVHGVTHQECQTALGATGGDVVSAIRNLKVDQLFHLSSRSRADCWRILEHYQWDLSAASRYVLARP
Chain of Serine/threonine-protein kinase SIK2 (Homo sapiens) (Q9H0K1 whole entry, looked up, the tested form may be a part): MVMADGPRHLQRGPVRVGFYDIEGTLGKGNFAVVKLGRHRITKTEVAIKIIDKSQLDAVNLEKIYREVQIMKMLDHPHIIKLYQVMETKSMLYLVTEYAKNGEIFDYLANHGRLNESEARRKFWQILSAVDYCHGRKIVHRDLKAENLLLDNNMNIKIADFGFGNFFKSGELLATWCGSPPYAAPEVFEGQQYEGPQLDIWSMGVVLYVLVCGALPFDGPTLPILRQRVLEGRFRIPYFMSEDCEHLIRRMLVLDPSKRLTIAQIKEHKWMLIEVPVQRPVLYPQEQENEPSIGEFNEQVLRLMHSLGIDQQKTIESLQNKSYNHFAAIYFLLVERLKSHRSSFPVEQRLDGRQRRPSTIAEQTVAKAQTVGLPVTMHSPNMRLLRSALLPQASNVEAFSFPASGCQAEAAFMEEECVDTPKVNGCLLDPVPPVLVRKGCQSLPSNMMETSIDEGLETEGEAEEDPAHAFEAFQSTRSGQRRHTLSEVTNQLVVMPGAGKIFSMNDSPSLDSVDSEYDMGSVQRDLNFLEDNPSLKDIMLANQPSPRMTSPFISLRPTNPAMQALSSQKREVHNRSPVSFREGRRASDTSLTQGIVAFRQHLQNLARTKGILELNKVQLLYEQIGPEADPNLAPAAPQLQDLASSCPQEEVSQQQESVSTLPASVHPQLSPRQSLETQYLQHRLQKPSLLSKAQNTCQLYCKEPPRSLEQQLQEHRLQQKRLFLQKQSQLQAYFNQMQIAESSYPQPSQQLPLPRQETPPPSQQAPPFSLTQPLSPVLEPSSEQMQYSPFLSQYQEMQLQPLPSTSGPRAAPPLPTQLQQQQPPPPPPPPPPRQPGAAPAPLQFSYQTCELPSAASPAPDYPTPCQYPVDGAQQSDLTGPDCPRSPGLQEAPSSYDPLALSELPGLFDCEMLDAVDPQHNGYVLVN
Chain of Phosphatidylinositol 4,5-bisphosphate 3-kinase catalytic subunit alpha isoform (Homo sapiens), P42336 [E545K] (P42336 whole entry E545K, the tested form may be a part, canonical isoform): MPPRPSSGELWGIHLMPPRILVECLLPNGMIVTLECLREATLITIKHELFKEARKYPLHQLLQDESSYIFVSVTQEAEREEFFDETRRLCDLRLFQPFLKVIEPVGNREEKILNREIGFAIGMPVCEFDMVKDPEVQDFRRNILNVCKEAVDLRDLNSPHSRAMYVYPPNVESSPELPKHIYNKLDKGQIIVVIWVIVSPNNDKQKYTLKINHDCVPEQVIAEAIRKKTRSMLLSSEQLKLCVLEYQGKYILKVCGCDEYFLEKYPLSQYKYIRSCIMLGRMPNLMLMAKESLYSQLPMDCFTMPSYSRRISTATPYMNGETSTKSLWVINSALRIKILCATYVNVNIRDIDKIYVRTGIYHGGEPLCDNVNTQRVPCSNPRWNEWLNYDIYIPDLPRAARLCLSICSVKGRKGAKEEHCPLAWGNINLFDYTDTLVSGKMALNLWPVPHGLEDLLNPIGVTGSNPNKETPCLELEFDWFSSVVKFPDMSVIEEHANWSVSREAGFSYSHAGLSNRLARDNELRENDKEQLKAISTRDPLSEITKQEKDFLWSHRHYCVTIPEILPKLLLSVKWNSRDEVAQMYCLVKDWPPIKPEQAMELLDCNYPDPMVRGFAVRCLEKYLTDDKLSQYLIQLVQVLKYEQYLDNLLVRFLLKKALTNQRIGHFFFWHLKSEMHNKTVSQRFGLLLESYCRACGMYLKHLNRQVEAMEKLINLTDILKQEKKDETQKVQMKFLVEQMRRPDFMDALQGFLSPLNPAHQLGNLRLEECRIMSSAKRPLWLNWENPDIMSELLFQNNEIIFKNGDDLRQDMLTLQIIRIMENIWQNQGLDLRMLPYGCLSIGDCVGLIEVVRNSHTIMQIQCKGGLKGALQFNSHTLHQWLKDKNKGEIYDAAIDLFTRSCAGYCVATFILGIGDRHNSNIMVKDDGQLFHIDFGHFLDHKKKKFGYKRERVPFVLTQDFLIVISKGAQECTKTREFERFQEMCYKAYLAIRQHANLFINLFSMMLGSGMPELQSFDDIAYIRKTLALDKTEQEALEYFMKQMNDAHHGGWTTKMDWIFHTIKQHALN
Chain of Proto-oncogene tyrosine-protein kinase receptor Ret (Homo sapiens), P07949 [V804L] (P07949 whole entry V804L, the tested form may be a part, canonical isoform): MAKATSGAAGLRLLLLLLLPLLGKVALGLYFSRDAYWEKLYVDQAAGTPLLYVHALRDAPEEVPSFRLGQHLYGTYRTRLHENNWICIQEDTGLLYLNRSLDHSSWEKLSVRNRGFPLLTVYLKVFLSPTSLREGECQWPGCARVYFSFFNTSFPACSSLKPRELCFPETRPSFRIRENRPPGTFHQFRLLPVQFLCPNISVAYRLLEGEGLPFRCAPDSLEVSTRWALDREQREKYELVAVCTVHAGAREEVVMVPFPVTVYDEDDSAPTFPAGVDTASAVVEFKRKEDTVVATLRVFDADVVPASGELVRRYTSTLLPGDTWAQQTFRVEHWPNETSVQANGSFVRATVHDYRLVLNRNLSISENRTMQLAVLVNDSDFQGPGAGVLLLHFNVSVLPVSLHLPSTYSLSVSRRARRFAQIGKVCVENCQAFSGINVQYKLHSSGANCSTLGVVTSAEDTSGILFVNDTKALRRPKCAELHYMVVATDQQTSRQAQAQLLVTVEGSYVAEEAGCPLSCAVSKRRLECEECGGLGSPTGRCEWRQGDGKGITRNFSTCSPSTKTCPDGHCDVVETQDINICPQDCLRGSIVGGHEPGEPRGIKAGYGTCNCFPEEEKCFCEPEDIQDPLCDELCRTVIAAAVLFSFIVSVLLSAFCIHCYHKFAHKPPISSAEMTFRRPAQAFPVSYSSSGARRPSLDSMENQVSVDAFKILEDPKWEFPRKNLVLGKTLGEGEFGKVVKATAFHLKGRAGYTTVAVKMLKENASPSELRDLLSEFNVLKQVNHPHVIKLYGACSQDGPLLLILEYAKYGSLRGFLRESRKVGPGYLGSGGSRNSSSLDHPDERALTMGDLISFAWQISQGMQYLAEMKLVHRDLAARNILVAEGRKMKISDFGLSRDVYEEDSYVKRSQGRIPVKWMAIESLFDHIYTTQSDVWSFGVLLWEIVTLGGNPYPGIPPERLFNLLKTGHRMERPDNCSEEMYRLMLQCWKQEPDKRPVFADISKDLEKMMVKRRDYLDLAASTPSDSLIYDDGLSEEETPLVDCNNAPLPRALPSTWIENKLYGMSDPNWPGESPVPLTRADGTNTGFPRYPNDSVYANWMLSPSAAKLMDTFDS

Regarding `CC(C)Nc1sc(C(=O)c2ccc(Cl)s2)c(N)c1C#N`, the Activity is 77% in [1]; 100% in [2]; 100% in assay [3]; 92% in assay [4]; 100% in assay [5]; 91% in [6]. Further, the Activity was determined as 100% in [7]; 84% in assay [8]; 70% in [9]; 100% in assay [10]; 100% in assay [11]; 83% in assay [12]. Also, the Activity in assay [13] worked out at 99%; in [14], 67%; in [15], 100%; in assay [16] it was 80%; in assay [17] it was 93%; in assay [18] it was 97%. The Activity in assay [19] was found to be 89%; in assay [20] it was 56%; in assay [21], 59%; in [22] it was 100%; in [23], 100%; in [24], 99%.
